# Laboratory results reported in patent publication US10081662B2, “Modified relaxin B chain peptides” (The Florey Institute of Neuroscience and Mental Health, priority 2014, dated 2018).
# Square brackets hold non-standard residues; d marks the D form. Peptide text beside a SMILES is read from it. hArg = N=C(N)NCCCC[C@H](N)C(=O)O; Agb = N=C(N)NCC[C@H](N)C(=O)O
# Columns and labels:
# RXFP1 [1] = biological target: T1, RXFP1 (Homo sapiens, UniProt Q9HBX9); assay: cAMP reporter gene assay (pCRE β-galactosidase) in HEK-293T cells transfected with RXFP1; type: cell-based; conditions: HEK-293T cells co-transfected with RXFP1 and pCRE β-galactosidase reporter; n ≥ 3; read-out: RXFP1 cAMP pEC50 (converted)
# T1 construct: expressed in transfected cells; host or cells: HEK-293T
# T1 sequence (Q9HBX9 1-757): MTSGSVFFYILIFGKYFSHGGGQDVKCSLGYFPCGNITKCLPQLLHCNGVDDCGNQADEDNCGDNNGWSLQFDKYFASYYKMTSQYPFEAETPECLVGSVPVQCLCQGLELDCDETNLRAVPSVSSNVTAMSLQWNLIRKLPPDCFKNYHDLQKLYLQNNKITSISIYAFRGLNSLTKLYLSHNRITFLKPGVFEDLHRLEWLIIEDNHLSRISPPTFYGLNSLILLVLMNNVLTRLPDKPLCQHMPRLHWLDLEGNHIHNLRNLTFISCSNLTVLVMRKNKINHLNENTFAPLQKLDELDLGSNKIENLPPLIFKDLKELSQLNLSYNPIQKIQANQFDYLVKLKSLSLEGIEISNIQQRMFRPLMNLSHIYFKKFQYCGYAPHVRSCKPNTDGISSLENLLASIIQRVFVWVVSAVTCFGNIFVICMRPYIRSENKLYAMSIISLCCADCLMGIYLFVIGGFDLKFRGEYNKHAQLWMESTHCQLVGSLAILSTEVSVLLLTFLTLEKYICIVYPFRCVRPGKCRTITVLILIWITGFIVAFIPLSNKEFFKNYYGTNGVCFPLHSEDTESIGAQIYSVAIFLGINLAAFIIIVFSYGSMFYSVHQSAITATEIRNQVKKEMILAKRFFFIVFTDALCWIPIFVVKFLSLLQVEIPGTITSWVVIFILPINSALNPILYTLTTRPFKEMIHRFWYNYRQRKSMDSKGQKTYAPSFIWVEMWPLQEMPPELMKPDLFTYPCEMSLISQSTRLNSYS
# Method: The ability of the relaxin-2 B chain peptide derivatives generated in Example 1 to stimulate cAMP response was also evaluated, using a cAMP reporter gene assay as described previously (Scott et al., 2006, J Biol Chem. 281, 34942-34954). HEK-293T cells co-transfected with either RXFP1 or RXFP2, or 7BP cells, and a pCRE β-galactosidase reporter plasmid were plated in 96-well plates. After 24 hours, the co-transfected cells were incubated with increasing concentrations of peptides in parallel to 10 nM of H2 relaxin or INSL3 for RXFP1- or RXFP2-transfected cells respectively. The amount of cAMP-driven β-galactosidase expression in each well was assessed with a colorimetric assay measuring absorbance at 570 nm on a microplate spectrophotometer. Ligand-induced cAMP stimulation was expressed as a percentage of maximal response of H2 relaxin or INSL3 for RXFP1 and RXFP2 cells respectively. Each data point was measured in triplicate and each experiment conducted independently at least three separate times. Statistical differences in pEC50 values were analyzed using one-way ANOVA coupled to Newman Keul's multiple comparison test for multiple group comparisons in GraphPad Prism 6.
# RXFP1 [2] = biological target: T1, RXFP1; assay: Eu-labelled H2 relaxin competition binding, whole HEK-293T cells stably transfected with RXFP1; conditions: HEK-293T cells stably transfected with RXFP1; competition with Eu-labelled H2 relaxin; mean ± S.E; n ≥ 3; read-out: RXFP1 Eu-H2 pKi (converted)
# Method: Human embryonic kidney (HEK-293T) cells stably transfected with RXFP1 were cultured in RPMI 1640 medium supplemented with 10% fetal calf serum, 100 μg/ml penicillin, 100 μg/ml streptomycin and 2 mM L-glutamine and plated into 96-well pre-coated with poly-L-lysine for whole cell binding assays. Competition binding experiments were conducted with Eu^3+-labelled H2 relaxin (as per Shabanpoor et al., 2012, Biochem Biophys Res Commun. 420, 253-256) in the absence or presence of increasing concentrations of unlabelled relaxin-2 B chain derivatives. Nonspecific binding was determined with an excess of unlabelled peptides (500 nM H2 relaxin). Fluorescent measurements were recorded at an excitation wavelength of 340 nm and emission of 614 nm on a Victor plate reader (Perkin-Elmer Inc.). […] Statistical differences in pIC50 values were analyzed using one-way analysis of variance coupled to Newman Keul's multiple comparison test for multiple group comparisons in GraphPad Prism 6.
# [3] = biological target: T2, fusion protein comprising the extracellular domain of RXFP1 and the transmembrane domain of CD8 (7BP cells) (Homo sapiens, UniProt Q9HBX9); assay: Eu-labelled H2 relaxin competition binding to 7BP cells; conditions: 7BP cells; lower affinity than H2 relaxin; FIG. 2B
# T2 construct: the extracellular domain of RXFP1 and the transmembrane domain of CD8; expressed in transfected cells
# T2 sequence (Q9HBX9 1-409 limits assumed): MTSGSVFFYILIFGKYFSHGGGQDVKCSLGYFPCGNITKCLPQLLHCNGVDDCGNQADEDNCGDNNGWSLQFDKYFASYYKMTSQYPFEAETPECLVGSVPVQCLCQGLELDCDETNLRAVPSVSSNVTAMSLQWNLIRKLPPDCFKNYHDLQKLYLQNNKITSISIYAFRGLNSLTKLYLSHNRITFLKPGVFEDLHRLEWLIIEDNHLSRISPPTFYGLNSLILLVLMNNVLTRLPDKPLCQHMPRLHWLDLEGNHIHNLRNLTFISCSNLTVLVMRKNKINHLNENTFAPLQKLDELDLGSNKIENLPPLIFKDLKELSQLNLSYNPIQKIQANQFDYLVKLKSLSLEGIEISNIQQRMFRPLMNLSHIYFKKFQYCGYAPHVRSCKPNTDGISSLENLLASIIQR
EC50 (RXFP1 [1]) [µM],Ki (RXFP1 [2]) [µM],Binding to 7BP cells (in words) [3],Compound
7.94,4.68,,CC[C@H](C)[C@H](NC(=O)[C@H](C)NC(=O)[C@@H](NC(=O)[C@H](CCC(N)=O)NC(=O)[C@H](C)NC(=O)[C@H](CCCNC(=N)N)NC(=O)[C@@H](NC(=O)[C@H](CC(C)C)NC(=O)[C@H](CCC(=O)O)NC(=O)[C@H](CCCNC(=N)N)NC(=O)CNC(=O)[C@H](CO)NC(=O)[C@H](CC(C)C)NC(=O)[C@H](CCCCN)NC(=O)[C@@H](NC(=O)[C@@H](NC(=O)[C@H](CCC(=O)O)NC(=O)[C@H](CCC(=O)O)NC(=O)[C@H](CCSC)NC(=O)[C@H](Cc1c[nH]c2ccccc12)NC(=O)[C@H](CO)NC(=O)[C@@H](N)CC(=O)O)C(C)C)[C@@H](C)CC)C(C)C)[C@@H](C)CC)C(=O)N[C@@H](CO)C(=O)NCC(=O)N[C@@H](CCSC)C(=O)N[C@@H](CO)C(=O)N[C@H](C(=O)N[C@@H](Cc1c[nH]c2ccccc12)C(=O)N[C@@H](CO)C(=O)N[C@@H](CCCCN)C(=O)N[C@@H](CCCNC(=N)N)C(=O)N[C@@H](CO)C(=O)N[C@@H](CC(C)C)C(N)=O)[C@@H](C)O [B1-33 C11.23S] (H-DSWMEEVIKLSGRELVRAQIAISGMSTWSKRSL-NH2)
> 10,0.302,,CC[C@H](C)[C@H](NC(=O)[C@H](C)NC(=O)[C@@H](NC(=O)[C@H](CCC(N)=O)NC(=O)[C@H](C)NC(=O)[C@H](CCCCNC(=N)N)NC(=O)[C@@H](NC(=O)[C@H](CC(C)C)NC(=O)[C@H](CCC(=O)O)NC(=O)[C@H](CCCNC(=N)N)NC(=O)CNC(=O)[C@H](CO)NC(=O)[C@H](CC(C)C)NC(=O)[C@H](CCCCN)NC(=O)[C@@H](NC(=O)[C@@H](N)C(C)C)[C@@H](C)CC)C(C)C)[C@@H](C)CC)C(=O)N[C@@H](CO)C(=O)NCC(=O)N[C@@H](CCSC)C(=O)N[C@@H](CO)C(=O)N[C@H](C(=O)N[C@@H](Cc1c[nH]c2ccccc12)C(=O)N[C@@H](CO)C(=O)N[C@@H](CCCCN)C(=O)N[C@@H](CCCNC(=N)N)C(=O)N[C@@H](CO)C(=O)N[C@@H](CC(C)C)C(N)=O)[C@@H](C)O [B7-33 C11.23S R17HR] (H-VIKLSGRELV[hArg]AQIAISGMSTWSKRSL-NH2)
1.55,> 10,,CC[C@H](C)[C@H](NC(=O)[C@H](C)NC(=O)[C@@H](NC(=O)[C@H](CCC(N)=O)NC(=O)[C@H](C)NC(=O)[C@H](CCNC(=N)N)NC(=O)[C@@H](NC(=O)[C@H](CC(C)C)NC(=O)[C@H](CCC(=O)O)NC(=O)[C@H](CCCNC(=N)N)NC(=O)CNC(=O)[C@H](CO)NC(=O)[C@H](CC(C)C)NC(=O)[C@H](CCCCN)NC(=O)[C@@H](NC(=O)[C@@H](N)C(C)C)[C@@H](C)CC)C(C)C)[C@@H](C)CC)C(=O)N[C@@H](CO)C(=O)NCC(=O)N[C@@H](CCSC)C(=O)N[C@@H](CO)C(=O)N[C@H](C(=O)N[C@@H](Cc1c[nH]c2ccccc12)C(=O)N[C@@H](CO)C(=O)N[C@@H](CCCCN)C(=O)N[C@@H](CCCNC(=N)N)C(=O)N[C@@H](CO)C(=O)N[C@@H](CC(C)C)C(N)=O)[C@@H](C)O [B7-33 C11.23S R17NR] (H-VIKLSGRELV[Agb]AQIAISGMSTWSKRSL-NH2)
> 10,> 10,,CC[C@H](C)[C@H](NC(=O)[C@H](C)NC(=O)[C@@H](NC(=O)[C@H](CCC(N)=O)NC(=O)[C@H](C)NC(=O)[C@H](CCCNC(=N)N)NC(=O)[C@@H](NC(=O)[C@H](CC(C)C)NC(=O)[C@H](CCC(=O)O)NC(=O)[C@H](CCCNC(=N)N)NC(=O)CNC(=O)[C@H](CO)NC(=O)[C@H](CC(C)C)NC(=O)[C@H](CCCCN)NC(=O)[C@@H](NC(=O)[C@@H](N)C(C)C)[C@@H](C)CC)C(C)C)[C@@H](C)CC)C(=O)N[C@@H](CO)C(=O)NCC(=O)N[C@@H](CCSC)C(=O)N[C@@H](CO)C(=O)N[C@H](C(=O)N[C@@H](Cc1c[nH]c2ccccc12)C(=O)N[C@@H](CO)C(N)=O)[C@@H](C)O [B7-29 C11.23S] (H-VIKLSGRELVRAQIAISGMSTWS-NH2; N-terminus assumed)
,,strongly bind to 7BP cells,VIKLCGRELVRAQIAICGMSTWSKRSL-NH2 [Native B7-33]
> 10,> 10,,CC[C@H](C)[C@H](NC(=O)[C@H](C)NC(=O)[C@@H](NC(=O)[C@H](CCC(N)=O)NC(=O)[C@H](C)NC(=O)[C@H](CCCCN)NC(=O)[C@@H](NC(=O)[C@H](CC(C)C)NC(=O)[C@H](CCC(=O)O)NC(=O)[C@H](CCCNC(=N)N)NC(=O)CNC(=O)[C@H](CO)NC(=O)[C@H](CC(C)C)NC(=O)[C@H](CCCCN)NC(=O)[C@@H](NC(=O)[C@@H](N)C(C)C)[C@@H](C)CC)C(C)C)[C@@H](C)CC)C(=O)N[C@@H](CO)C(=O)NCC(=O)N[C@@H](CCSC)C(=O)N[C@@H](CO)C(=O)N[C@H](C(=O)N[C@@H](Cc1c[nH]c2ccccc12)C(=O)N[C@@H](CO)C(=O)N[C@@H](CCCCN)C(=O)N[C@@H](CCCNC(=N)N)C(=O)N[C@@H](CO)C(=O)N[C@@H](CC(C)C)C(N)=O)[C@@H](C)O [B7-33 C11.23S R17K] (H-VIKLSGRELVKAQIAISGMSTWSKRSL-NH2; N-terminus assumed)
> 10,> 10,,CC[C@H](C)[C@H](NC(=O)[C@H](C)NC(=O)[C@H](C)NC(=O)[C@H](CCC(N)=O)NC(=O)[C@H](C)NC(=O)[C@H](CCCNC(=N)N)NC(=O)[C@@H](NC(=O)[C@H](CC(C)C)NC(=O)[C@H](CCC(=O)O)NC(=O)[C@H](CCCNC(=N)N)NC(=O)CNC(=O)[C@H](CO)NC(=O)[C@H](CC(C)C)NC(=O)[C@H](CCCCN)NC(=O)[C@@H](NC(=O)[C@@H](NC(C)=O)C(C)C)[C@@H](C)CC)C(C)C)C(=O)N[C@@H](CO)C(=O)NCC(=O)N[C@@H](CCSC)C(=O)N[C@@H](CO)C(=O)N[C@H](C(=O)N[C@@H](Cc1c[nH]c2ccccc12)C(=O)N[C@@H](CO)C(=O)N[C@@H](CCCCN)C(=O)N[C@@H](CCCNC(=N)N)C(=O)N[C@@H](CO)C(=O)N[C@@H](CC(C)C)C(N)=O)[C@@H](C)O [R20A (AcB7-33 C11.23S)] (Ac-VIKLSGRELVRAQAAISGMSTWSKRSL-NH2)
